The values below come from US8030446B2, “Mutant proline-and-arginine rich peptides and methods for using the same” (Trustees of Dartmouth College, priority 2006, dated 2011).

Marks after values point to notes of the source that are not given here. Ends that are not written are not given here.

Experiment [1] addresses T1, Mammalian (Human) 20s Proteasome (Homo sapiens, UniProt P25788).
T1 construct: purchased Boston Biochem (Cambridge, Mass.)
Briefly: Chymotrypsin-like (ChT-L) peptidase activity of 20S proteasome, N-succinyl-LLVY-AMC substrate. Format: biochemical. The conditions noted are these: chymotrypsin-like activity; for IC50: 15-minute pre-incubation, 1 hour at 37° C., pH 7.5, 0.03% SDS, read-out: I50. On the procedure: Determination of Enzymatic Activity. Mammalian (Human) 20s Proteasome was purchased from Boston Biochem (Cambridge, Mass.); substrate, N-succinyl-LLVY-AMC was purchased from SIGMA (St. Louis, Mo.); and negative control, Lactacystin, was purchased from SIGMA. […] Activity was determined by measuring the amount of a fluorescence observed upon release of the MCA group after a 1 hour incubation at 37° C. in 50 mM sodium phosphate buffer at pH 7.5 containing 0.03% SDS. Inhibition by PR-peptide was measured after a 15-minute pre-incubation at 37° C. of each peptide with 20S proteasome, followed by the addition of the substrate and the one hour incubation.

The test system of experiment [2] is genes regulating the NF-κB pathway in human umbilical vein endothelial cells (HUVEC). Briefly: NF-κB pathway-specific gene expression microarray in HUVEC treated with PR peptides. In kind it is cell-based. To be noted: for overall inhibitory effect on NF-κB pathway-related gene expression (in words): FIG. 1, averaged % inhibition over 13 down-regulated genes, relative to PR11; for AKT1 gene expression / ATF2 gene expression / CREB1 gene expression / ELK3 gene expression / JNK1 gene expression / MEK4 gene expression / MEKK1 gene expression / MEKK2 gene expression / NF-κB1 gene expression / NF-κB2 gene expression / P38 MAPK gene expression / RANK gene expression / RIP gene expression / TAK1 gene expression / TBK1 gene expression / TRAF6 gene expression: PR peptides 1 μM, 8 hours, relative to untreated controls; for number of significantly reduced genes: of the 13 down-regulated genes of Tables 5 and 6. On the procedure: Cell Culture. Human umbilical vein endothelial cells (HUVEC, Cambrex Bio Science Walkersville, Inc., East Rutherford, N.J.) were cultured in endothelial cell basal medium-2 supplemented with EGM-2 SINGLEQUOTS (Cambrex Bio Science Walkersville, Inc.) and FBS. Confluent HUVEC, passage 3-5, were starved overnight in medium supplemented with 0.5% FBS, 0.25% BSA and incubated with PR peptides (1 μM) for 8 hours in starvation medium.
Total RNA Extraction and Gene Profiling by Microarray. Total RNA extraction was performed using the RNEASY mini kit protocol (QIAGEN, Valencia, Calif.). The quality and quantity of total RNA was determined using RNA 6000 Nano chips (Agilent Technology, Santa Clara, Calif.).
Gene profiling was performed using pathway-specific gene expression array for NF-κB signaling transduction (HS-016.2, SuperArray Bioscience Corp.). A total of 96 cDNA fragments from genes related to NF-κB mediated signal transduction, including: NF-κB/IκB family, NF-κB responsive genes (adhesion molecules, cytokines), extracellular ligands, transmembrane receptors, adaptor proteins, signal transduction kinases, and transcription factors were printed in tetraspot format on 3.8×4.8 cm nylon array membrane. Total RNA (0.5 μg) was reverse-transcribed into cDNA labeled with biotin-dUTP according to the manufacture's protocol. After overnight hybridization at 60° C., array membranes were treated with alkaline phosphate-conjugated streptavidin followed by chemiluminescent alkaline phosphate substrate CDP-star (Applied Biosystems, Foster City, Calif.) and exposed to X-ray film. The data were extracted from raw images using […] software (SuperArray, Bioscience Corp.). After background subtraction, the level of gene expression was determined as signal intensity units relative to total array intensity signal. Statistical significant altered genes (PR peptides vs. control) at P values <0.05 were analyzed by Student's t-test, 2-tailed distribution. The data were expressed as fold change PR peptides relative to controls (untreated cells kept in similar conditions).

For RKRPRPPYLPR [Peptide K2], the IC50 in experiment [1] worked out at 0.543 µM. Besides, the “overall inhibitory effect on NF-κB pathway-related gene expression (in words)” value (“overall inhibitory effect” below) in experiment [2] was “not significantly different than PR11”. In experiment [2] (HUVEC), the AKT1 gene expression was determined as 1.6 fold change, the ATF2 gene expression is −2.0^# fold change, the CREB1 gene expression was −2.6 fold change and the ELK3 gene expression is given as 1.5* fold change. For the same sequence, in experiment [2] (HUVEC), the JNK1 gene expression is −3.1 fold change, the MEK4 gene expression is listed as −9.3^# fold change, the MEKK1 gene expression is on record as −5.3* fold change and the MEKK2 gene expression is reported as −1.7 fold change. Further, in experiment [2] (HUVEC), the NF-κB1 gene expression is listed as −2.1 fold change, the NF-κB2 gene expression was −1.5 fold change, the “P38 MAPK gene expression” value is −1.4 fold change and the RANK gene expression is reported as 1.1 fold change. For the same sequence, in experiment [2] (HUVEC), the RIP gene expression is −2.8* fold change, the TAK1 gene expression is −2.1* fold change, the TBK1 gene expression was −4.6^# fold change and the TRAF6 gene expression was −2.5 fold change. The “number of significantly reduced genes” value in experiment [2] (HUVEC) is 6 genes.

As to RRAPRPPYLPR [Peptide A3], in experiment [1], the IC50 was determined as 3.15 µM. In addition, the “overall inhibitory effect” value in experiment [2] was “more active than A1-PR11 and A2-PR11”. For the same sequence, in experiment [2] (HUVEC), the AKT1 gene expression worked out at 1.7 fold change, the ATF2 gene expression is recorded as −1.3 fold change, the CREB1 gene expression is given as −1.3 fold change and the ELK3 gene expression is reported as 1.3* fold change. Further, in experiment [2] (HUVEC), the JNK1 gene expression is −2.6 fold change, the MEK4 gene expression is listed as −2.7* fold change, the MEKK1 gene expression is recorded as −1.9 fold change and the MEKK2 gene expression is recorded as −2.1* fold change. Besides, in experiment [2] (HUVEC), the NF-κB1 gene expression is −2.0 fold change, the NF-κB2 gene expression is given as −1.4 fold change, the “P38 MAPK gene expression” value was −1.9* fold change and the RANK gene expression is listed as 1.7* fold change. Also, in experiment [2] (HUVEC), the RIP gene expression is reported as −3.0* fold change, the TAK1 gene expression is on record as −3.3* fold change, the TBK1 gene expression is on record as −2.1* fold change and the TRAF6 gene expression is −1.4 fold change. Further, in experiment [2] (HUVEC), the “number of significantly reduced genes” value stood at 5 genes.

Turning to RRKPRPPYLPR [Peptide K3], the IC50 in experiment [1] turned out to be 0.819 µM. Further, the “overall inhibitory effect” value in experiment [2] is “not significantly different than PR11”. In experiment [2] (HUVEC), the AKT1 gene expression worked out at 1.7 fold change, the ATF2 gene expression is −1.6* fold change, the CREB1 gene expression is −1.6 fold change and the ELK3 gene expression is 1.4^# fold change. In addition, in experiment [2] (HUVEC), the JNK1 gene expression is −3.2* fold change, the MEK4 gene expression was −3.1* fold change, the MEKK1 gene expression is given as −3.2 fold change and the MEKK2 gene expression is on record as −1.9^# fold change. In experiment [2] (HUVEC), the NF-κB1 gene expression is given as −2.2 fold change, the NF-κB2 gene expression is recorded as −1.2 fold change, the “P38 MAPK gene expression” value is on record as −1.7* fold change and the RANK gene expression was 1.7* fold change. In experiment [2] (HUVEC), the RIP gene expression is listed as −2.4* fold change, the TAK1 gene expression is −3.1^# fold change, the TBK1 gene expression is on record as −1.8* fold change and the TRAF6 gene expression is −1.7 fold change. Further, the “number of significantly reduced genes” value in experiment [2] (HUVEC) is given as 8 genes.

Turning to RRRPRPPELPR [Peptide E8], the IC50 in experiment [1] amounted to 2.37 µM. Further, the “overall inhibitory effect” value in experiment [2] is on record as “reduced activity compared with PR11 or Trp12”. Moreover, in experiment [2] (HUVEC), the AKT1 gene expression was determined as 0.8 fold change, the ATF2 gene expression is −1.6* fold change, the CREB1 gene expression was −1.9 fold change and the ELK3 gene expression result was “^−1.8^# fold change”. In experiment [2] (HUVEC), this sequence returned a JNK1 gene expression of −1.2 fold change, an MEK4 gene expression of −1.2 fold change, an MEKK1 gene expression of −1.0 fold change and an MEKK2 gene expression of −1.3 fold change. Moreover, in experiment [2] (HUVEC), the NF-κB1 gene expression is recorded as −1.7 fold change, the NF-κB2 gene expression is given as −1.4 fold change, the “P38 MAPK gene expression” value is given as −1.5 fold change and the RANK gene expression worked out at 1.5 fold change. In experiment [2] (HUVEC), the RIP gene expression was −3.6* fold change, the TAK1 gene expression is −1.7* fold change, the TBK1 gene expression is listed as −2.3^# fold change and the TRAF6 gene expression was −1.2 fold change.

Consider RRRPRPPELPRW [Peptide E8W12], for which, in experiment [1], the “20S proteasome inhibiting activity (in words)” value is “behaved much the same as the Glu8 mutant” and the IC50 turned out to be 2.61 µM. In addition, in experiment [2], the “overall inhibitory effect” value is listed as “reduced activity compared with PR11 or Trp12”. Moreover, in experiment [2] (HUVEC), the AKT1 gene expression is 1.8* fold change, the ATF2 gene expression is −1.8* fold change, the CREB1 gene expression is recorded as −1.5 fold change and the ELK3 gene expression worked out at 1.0 fold change. Moreover, in experiment [2] (HUVEC), the JNK1 gene expression is on record as −1.8 fold change, the MEK4 gene expression is −2.4* fold change, the MEKK1 gene expression is −1.7 fold change and the MEKK2 gene expression is recorded as −1.1 fold change. For the same sequence, in experiment [2] (HUVEC), the NF-κB1 gene expression was −1.6 fold change, the NF-κB2 gene expression is reported as −1.3 fold change, the “P38 MAPK gene expression” value is listed as −1.1 fold change and the RANK gene expression was 1.8^# fold change. Further, in experiment [2] (HUVEC), the RIP gene expression is listed as −1.5 fold change, the TAK1 gene expression is recorded as −1.2 fold change, the TBK1 gene expression is −1.6* fold change and the TRAF6 gene expression is −1.2 fold change.

For RRRPRPPYLPR [PR11, reference compound], in experiment [1], the IC50 is 0.805 µM. Also, the “number of genes whose expression was significantly affected” value in experiment [2] (HUVEC, NF-κB array of 96 genes) came to 16 genes. Also, in experiment [2] (HUVEC), the AKT1 gene expression is on record as 3.0* fold change, the ATF2 gene expression was −2.1* fold change, the CREB1 gene expression is −2.1* fold change and the ELK3 gene expression is 1.9* fold change. Besides, in experiment [2] (HUVEC), the JNK1 gene expression is −6.5^# fold change, the MEK4 gene expression is −3.1* fold change, the MEKK1 gene expression is recorded as −2.9* fold change and the MEKK2 gene expression is −2.6* fold change. Moreover, in experiment [2] (HUVEC), the NF-κB1 gene expression is −4.1* fold change, the NF-κB2 gene expression is given as −3.3^# fold change, the “P38 MAPK gene expression” value is given as −3.6^# fold change and the RANK gene expression is on record as 1.5* fold change. For the same sequence, in experiment [2] (HUVEC), the RIP gene expression is listed as −10.4^# fold change, the TAK1 gene expression is listed as −9.2^# fold change, the TBK1 gene expression is −2.8^# fold change and the TRAF6 gene expression is −2.4* fold change.

In the case of RRRPRPPYLPRW [Peptide W12], the “20S proteasome inhibiting activity (in words)” value in experiment [1] is given as “did not noticeably alter PR11 activity”. Further, in experiment [2] (HUVEC), the AKT1 gene expression is given as 2.5^# fold change, the ATF2 gene expression is −2.7^# fold change, the CREB1 gene expression is listed as −1.6 fold change and the ELK3 gene expression is 1.3^# fold change. In experiment [2] (HUVEC), the JNK1 gene expression was −5.3* fold change, the MEK4 gene expression is reported as −4.0^# fold change, the MEKK1 gene expression is −4.6* fold change and the MEKK2 gene expression is reported as −2.4^# fold change. For the same sequence, in experiment [2] (HUVEC), the NF-κB1 gene expression is −2.6 fold change, the NF-κB2 gene expression was −1.9* fold change, the “P38 MAPK gene expression” value is reported as −2.5^# fold change and the RANK gene expression is on record as 2.1^# fold change. In experiment [2] (HUVEC), the RIP gene expression is −5.5* fold change, the TAK1 gene expression was −2.0^# fold change, the TBK1 gene expression is given as −4.7^# fold change and the TRAF6 gene expression is −3.1* fold change.
